Source: ChEMBL document CHEMBL5576050, “Discovery of a DCAF11-dependent cyanoacrylamide-containing covalent degrader of BET-proteins” (Bioorg Med Chem Lett, 2024)
Values belong to the molecule of their own block, whether it stands above or below them. Calls of active or inactive are those of the source. No cut-off for these calls is given here.

Legend:
[1] = biological target: T1, Bromodomain-containing protein 4 (Homo sapiens, UniProt O60885); assay: Induction of nLuc-tagged BRD4S degradation in human KBM-7 cells incubated for 2 to 24 hrs by nanoluciferase based assay; format: cell-based; conditions: for Activity: time 2-24 hrs
[2] = biological target: T1, Bromodomain-containing protein 4; assay: Induction of nLuc-tagged BRD4S degradation in human KBM-7 cells by nanoluciferase based assay; format: cell-based; conditions: time 2-24 hrs, TDE = time-dependent effect
[3] = biological target: T1, Bromodomain-containing protein 4; assay: Induction of BRD4 degradation in human KBM-7 cells at 5 uM pretreated with […] binder 12 for 1 hr followed by compound addition and measured after 5 hrs by Western blotting analysis; format: cell-based
KBM-7 [4] = assay: Downregulation of c-Myc expression in human KBM-7 cells at 5 uM after 5 hrs by Western blotting analysis; format: functional, cell-based
[5] = biological target: Bromodomain-containing protein 3 (Homo sapiens) (UniProt Q15059); assay: Induction of BRD3 degradation in human KBM-7 cells at 5 uM incubated for 5 hrs by Western blotting analysis; format: cell-based
[6] = biological target: T1, Bromodomain-containing protein 4; assay: Induction of HA-tagged BRD4S degradation in human KBM-7 cells at 5 uM pretreated with carfilzomib for 1 hr followed by compound addition and measured after 6 hrs by Western blotting analysis; format: cell-based
[7] = biological target: Bromodomain-containing protein 3 (Homo sapiens) (UniProt Q15059); assay: Induction of BRD3 degradation in human KBM-7 cells at 5 uM pretreated with bortezomib for 1 hr followed by compound addition and measured after 6 hrs by Western blotting analysis; format: cell-based
[8] = biological target: Bromodomain-containing protein 3 (Homo sapiens) (UniProt Q15059); assay: Induction of BRD3 degradation in DCAF11 knockout human KBM-7 cells at 5 uM after 6 hrs by Western blotting analysis; format: cell-based
[9] = biological target: Bromodomain-containing protein 3 (Homo sapiens) (UniProt Q15059); assay: Induction of BRD3 degradation in human KBM-7 cells at 5 uM pretreated with TAK-243 for 1 hr followed by compound addition and measured after 6 hrs by Western blotting analysis; format: cell-based
[10] = biological target: T1, Bromodomain-containing protein 4; assay: Induction of HA-tagged BRD4S degradation in human KBM-7 cells at 5 uM after 5 to 20 hrs by Western blotting analysis; format: cell-based; conditions: time 5-20 hrs
[11] = biological target: T1, Bromodomain-containing protein 4; assay: Induction of BRD4 degradation in human KBM-7 cells at 5 uM incubated for 5 hrs by Western blotting analysis; format: cell-based
[12] = biological target: Bromodomain-containing protein 2 (Homo sapiens) (UniProt P25440); assay: Induction of BRD2 degradation in human KBM-7 cells at 5 uM pretreated with […] binder 11 for 1 hr followed by compound addition and measured after 5 hrs by Western blotting analysis; format: cell-based
[13] = biological target: T1, Bromodomain-containing protein 4; assay: Induction of BRD4S-BFP in DCAF11 knockout human K-BM7 cells transduced with sgRNA-resistant wild-type DCAF11 at 5 uM incubated for 6 hrs by flow cytometry analysis; format: cell-based; conditions: KBM-7
[14] = biological target: T1, Bromodomain-containing protein 4; assay: Induction of BRD4 degradation in human KBM-7 cells at 5 uM pretreated with […] binder 11 for 1 hr followed by compound addition and measured after 5 hrs by Western blotting analysis; format: cell-based
[15] = biological target: Bromodomain-containing protein 3 (Homo sapiens) (UniProt Q15059); assay: Induction of BRD3 degradation in human KBM-7 cells at 5 uM pretreated with […] binder 12 for 1 hr followed by compound addition and measured after 5 hrs by Western blotting analysis; format: cell-based
[16] = biological target: T1, Bromodomain-containing protein 4; assay: Induction of HA-tagged BRD4S degradation in human KBM-7 cells at 5 uM pretreated with TAK-243 for 1 hr followed by compound addition and measured after 6 hrs by Western blotting analysis; format: cell-based
[17] = biological target: T1, Bromodomain-containing protein 4; assay: Induction of BRD4S-BFP in DCAF11 knockout human K-BM7 cells transduced with sgRNA-resistant DCAF11 vector containing Cys-to-Ala mutant at 5 uM incubated for 6 hrs by flow cytometry analysis; format: cell-based; conditions: KBM-7
[18] = biological target: T1, Bromodomain-containing protein 4; assay: Induction of HA-tagged BRD4S degradation in human KBM-7 cells at 5 uM pretreated with bortezomib for 1 hr followed by compound addition and measured after 6 hrs by Western blotting analysis; format: cell-based
[19] = biological target: Bromodomain-containing protein 3 (Homo sapiens) (UniProt Q15059); assay: Induction of BRD3 degradation in human KBM-7 cells at 5 uM pretreated with carfilzomib for 1 hr followed by compound addition and measured after 6 hrs by Western blotting analysis; format: cell-based
[20] = biological target: T1, Bromodomain-containing protein 4; assay: Induction of BRD4 degradation in DCAF11 knockout human KBM-7 cells at 5 uM after 6 hrs by Western blotting analysis; format: cell-based
[21] = biological target: Bromodomain-containing protein 3 (Homo sapiens) (UniProt Q15059); assay: Induction of BRD3 degradation in human KBM-7 cells at 5 uM pretreated with […] binder 11 for 1 hr followed by compound addition and measured after 5 hrs by Western blotting analysis; format: cell-based
KBM-7 [22] = assay: Downregulation of c-MYC expression in DCAF11 knockout human KBM-7 cells at 5 uM after 6 hrs by Western blotting analysis; format: functional, cell-based
[23] = biological target: Bromodomain-containing protein 2 (Homo sapiens) (UniProt P25440); assay: Induction of BRD2 degradation in human KBM-7 cells at 5 uM pretreated with DCAF11 binder 12 for 1 hr followed by compound addition and measured after 5 hrs by Western blotting analysis; format: cell-based

Chain of Bromodomain-containing protein 3 (Homo sapiens) (Q15059 2-726 limits assumed): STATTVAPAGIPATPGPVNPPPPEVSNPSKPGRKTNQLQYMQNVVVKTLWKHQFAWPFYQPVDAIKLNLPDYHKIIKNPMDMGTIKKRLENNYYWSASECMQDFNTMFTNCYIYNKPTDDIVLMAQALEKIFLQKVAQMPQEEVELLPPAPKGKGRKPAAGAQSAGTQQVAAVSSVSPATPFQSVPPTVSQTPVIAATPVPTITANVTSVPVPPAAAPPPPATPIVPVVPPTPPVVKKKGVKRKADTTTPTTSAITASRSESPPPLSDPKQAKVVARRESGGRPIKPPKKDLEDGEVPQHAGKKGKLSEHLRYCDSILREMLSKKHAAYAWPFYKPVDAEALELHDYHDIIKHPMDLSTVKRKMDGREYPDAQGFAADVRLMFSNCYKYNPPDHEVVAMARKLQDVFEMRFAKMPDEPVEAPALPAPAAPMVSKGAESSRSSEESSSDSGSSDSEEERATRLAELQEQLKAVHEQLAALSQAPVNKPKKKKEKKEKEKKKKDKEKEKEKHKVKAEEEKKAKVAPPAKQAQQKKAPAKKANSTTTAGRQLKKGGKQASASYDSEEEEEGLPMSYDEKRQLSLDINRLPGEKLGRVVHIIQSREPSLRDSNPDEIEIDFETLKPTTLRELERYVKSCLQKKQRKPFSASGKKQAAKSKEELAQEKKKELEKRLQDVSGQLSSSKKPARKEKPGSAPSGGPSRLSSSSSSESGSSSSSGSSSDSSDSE
Chain of Bromodomain-containing protein 2 (Homo sapiens) (P25440 whole entry, looked up): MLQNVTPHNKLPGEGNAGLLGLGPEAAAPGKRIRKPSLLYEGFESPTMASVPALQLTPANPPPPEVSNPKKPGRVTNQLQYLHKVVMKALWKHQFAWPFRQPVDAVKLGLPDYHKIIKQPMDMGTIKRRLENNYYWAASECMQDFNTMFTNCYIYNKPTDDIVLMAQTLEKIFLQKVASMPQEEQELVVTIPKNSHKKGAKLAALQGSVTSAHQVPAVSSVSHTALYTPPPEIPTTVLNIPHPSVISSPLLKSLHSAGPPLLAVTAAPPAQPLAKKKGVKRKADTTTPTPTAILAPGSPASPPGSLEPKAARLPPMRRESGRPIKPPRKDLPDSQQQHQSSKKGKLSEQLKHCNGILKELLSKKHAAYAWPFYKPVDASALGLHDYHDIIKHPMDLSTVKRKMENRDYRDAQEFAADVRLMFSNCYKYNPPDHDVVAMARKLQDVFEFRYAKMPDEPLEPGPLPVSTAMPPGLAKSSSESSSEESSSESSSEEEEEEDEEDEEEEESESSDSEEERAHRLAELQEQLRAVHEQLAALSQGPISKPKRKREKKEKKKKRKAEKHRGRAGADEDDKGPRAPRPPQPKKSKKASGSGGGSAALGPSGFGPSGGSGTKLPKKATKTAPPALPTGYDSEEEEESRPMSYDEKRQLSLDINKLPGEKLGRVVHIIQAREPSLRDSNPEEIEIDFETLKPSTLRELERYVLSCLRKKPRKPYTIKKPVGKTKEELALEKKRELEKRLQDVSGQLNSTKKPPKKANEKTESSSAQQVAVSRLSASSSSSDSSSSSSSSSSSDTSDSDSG

DC50 [1]: 396 nM
Activity [1]: Dose-Dependent Effect
Activity [2]: Tde
Structure (SMILES): Cc1sc2c(c1C)C(c1ccc(Cl)cc1)=N[C@@H](CC(=O)NCCOCCOCCNC(=O)COc1ccc(CNC(=O)/C(C#N)=C/c3ccc4ccccc4c3)cc1)c1nnc(C)n1-2

Activity [3]: inactive
Activity [5]: Active
Activity [6]: inactive
Activity [7]: inactive
Activity [8]: inactive
Activity [9]: inactive
Activity [10]: Active
Activity [11]: Active
Activity [12]: inactive
Activity [13]: Active
DC50 [1]: 305 nM
Activity [1]: Dose-Dependent Effect
Activity [14]: inactive
Activity [15]: inactive
Activity [16]: inactive
Activity [17]: inactive
Activity [18]: inactive
Activity [19]: inactive
Activity [2]: Tde
Activity [20]: inactive
Activity [21]: inactive
Activity [23]: inactive
Structure (SMILES): Cc1sc2c(c1C)C(c1ccc(Cl)cc1)=N[C@@H](CC(=O)NCCCCCCNC(=O)COc1ccc(CNC(=O)/C(C#N)=C/c3ccc4ccccc4c3)cc1)c1nnc(C)n1-2
Activity (KBM-7 [4]): Active
Activity (KBM-7 [22]): Active

Activity [5]: Active
Activity [11]: Active
Structure (SMILES): Cc1sc2c(c1C)C(c1ccc(Cl)cc1)=N[C@@H](CC(=O)NCCCCCCNC(=O)COc1ccc(CNC(=O)CCc3ccc4ccccc4c3)cc1)c1nnc(C)n1-2
Activity (KBM-7 [4]): inactive

Activity [5]: Active
Activity [11]: Active
Activity [1]: inactive
Structure (SMILES): Cc1sc2c(c1C)C(c1ccc(Cl)cc1)=N[C@@H](CC(=O)NCCCCCCNC(=O)COc1ccc(CNC(=O)/C=C/c3ccc4ccccc4c3)cc1)c1nnc(C)n1-2
Activity (KBM-7 [4]): inactive
